We go through 1 compound from patent US11992552B2, “Geometric configurations for gastric residence systems” (Lyndra Therapeutics, Inc., priority 2015, dated 2024).

Series [1] is described as follows: Shear-lap joint adhesion test (ASTM D3163) of enteric materials. The series is classed as physicochemical. The settings on record: plasticizer with Eudragit L100-55 (70%/30% enteric material/plasticizer), acetone as solvent, PCL sheets. From the text:
The influence of solvent (acetone, isopropyl alcohol, and ethyl acetate) and plasticizer (Eudragit NM, Plastoid B, Triethyl Citrate, and Triacetin) on the adhesion force of enteric materials were quantified using ASTM D3163, a standardized shear-lap joint mechanical test. The top figure A illustrates a side view of the experimental setup. Two 2-mm thick PCL (Mn 55 k) polymer sheets are adhered to an enteric material, Eudragit L100-55 (methyl methacrylate) combined with a plasticizer (in a 70%/30% enteric material/plasticizer ratio), using a solvent and pressure. The polymer sheets are then loaded into a tensile testing machine and pulled apart. The force/stress that causes the linker-polymer bond to break is recorded.

Series [2] in a line: Behaviour over seven days in simulated gastric fluid. It counts as physicochemical.

Regarding `CC(=O)OCC(COC(C)=O)OC(C)=O` [Triacetin], in series [1], the adhesion force entry was “greatest adhesion force”. Moreover, in series [2], the “release of plasticizer from a polymer formulation” value is “releases from a polymer formulation in a time-dependent manner over seven days”.
